Here are results for two compounds from US20230391817A1, “5ALPHA-HYDROXY-6BETA-[2-(1-H-IMIDAZOL-4-YL)-ETHYLAMINO]-CHOLESTAN-3BETA-OL ANALOGUES AND PHARMACEUTICAL COMPOSITIONS COMPRISING SAME FOR USE IN THE TREATMENT OF CANCER” (priority 2020, published 2023).

The structures appear in SMILES notation. Like-named read-outs stand apart in the source and are kept apart here.

Assay [1] relates to murine 4T1 mammary tumor cells. The assay can be described thus: Cell viability of 4T1 cells, CellTox Green Cytotoxicity Assay. It counts as cell-based. The settings on record: Mus musculus, 4T1, Green Cytotoxicity Assay, 48 h. The method, then:
Cell viability tests were performed on murine 4T1 mammary tumor cells characterized as triple negative (HER2-, ER-, PR-).
For this experiment, a cell culture medium was prepared. The culture medium consisted of Dulbecco's Modified Eagle Medium (DMEM, sold by Westburg as LO BE12-604F), comprising 4.5 g/L glucose with L-glutamine, to which 10% fetal calf serum (FCS) and 50 U/ml penicillin/streptomycin are added. The 4T1 cells were introduced into this culture medium.
96-well plates were seeded with 2000 4T1 cells per well. After 72 hours (h) of culture under normal condition, i.e. in an incubator at 37° C. at […], the 4T1 cells were treated for 48 h with DX101, DX103, DX111, DX123, DX125, DX127 and DX129 at 100 nM, 1 μM, 2.5 μM and 10 μM. A control condition (CTL) is also performed in parallel using the previously described protocol without treatment with the molecules DX101, DX103, DX111, DX123, DX125, DX127 or DX129.
For the third method, the percentage viability is determined using the CellTox Green Cytotoxicity Assay kit (Promega). This assay measures cell death via a change in membrane integrity. […] Consequently, the higher the fluorescence in the wells, the greater the cell death. […] The percentage of cell death is determined using the 100% cell death control (made from untreated cells incubated in the presence of the lysis solution for 30 minutes at 37° C. prior to the addition of Celltox green reagent), and the cell viability in each well is then deduced from this percentage. The IC50 is then determined as explained previously.

The test system of assay [2] is BT-474 human mammary tumor cells. Put plainly: Cell viability of BT-474 cells, trypan blue. It counts as cell-based. The settings on record: BT-474, Trypan Blue, 48 h; for Mean LogIC50 (±SEM): log of IC50 in μM; for IC50: Homo sapiens. The method, then:
(§1) Cell viability tests were also performed on BT-474 human mammary tumor cells (characterized as triple positive HER2+, ER+, PR+). The BT-474 cells were in a cell culture medium identical to the previous example and seeded in 24-well plates at 70 000 cells per well for cell viability determination using trypan blue, or in 96-well plates at 13 000 cells per well for cell viability determination using the MTT or LDH assay. After 96 hours (h) of culture under normal conditions, i.e. in an incubator at 37° C. with […], BT-474 cells were treated for 48 h with DX101, DX103, DX105, DX111, DX123 and DX127 at 100 nM, 1 μM, 2.5 μM and 10 μM. A control is also performed using the protocol described previously without treatment with DX101, DX103, DX105, DX111, DX123 and DX127.
(§2) After a 10-minute trypsin digestion at 37° C., the cell survival was also quantified by means of a trypan blue test with automatic counting using the Biorad TC20 machine (TC20™ Automated Cell Counter). The trypan blue test is based on the integrity of cell membranes, which is disrupted in the dead cells. Trypan blue stains dead cells blue. The Biorad TC20 cell counter counts the proportion of blue and non-blue cells, and reports the percentage of cells. The percentage of viability is then determined in each well relative to the untreated cells and the IC50 is determined as explained in the preceding example. Also, the percentage viability of the BT-474 cells was determined using the MTT and LDH assay, performed as described in the preceding example.

The next assay concerns 4T1 tumors. The assay can be described thus: Tumor growth and survival in vivo, subcutaneous 4T1 tumors in Balb/c mice. The note with it: 40 mg/kg, gavage, daily; for Inhibition of tumor growth at 7 days: Balb/c mice with 4T1 tumors. As for the experimental part:
All the animal procedures were conducted according to our institutional guidelines after approval by the ethics committee. The 4T1 cells were cultured as previously, dissociated in trypsin, washed twice with cold PBS and resuspended in 1.5 million/ml PBS. 4T1 tumors were obtained by subcutaneous transplantation of 0.150 million cells in 100 μL into the flank of female Balb/c mice (9 weeks old, […]). When the tumors reached a volume of 50-100 mm^3, the mice were gavaged with 40 mg/kg of DX101 or 40 mg/kg of DX111 or the control vehicle (water). Treatment was performed daily until the end of the experiment (tumor volume >1000 mm^3). Tumor volume was determined daily using a caliper and calculated using the formula: ½×(Length*Width^2). The percentage of tumor growth inhibition was determined using the following formula: 100×(1-(Tumor volume, day 7/tumor volume day 0)DX111)/(1-(Tumor volume, day 7/tumor volume day 0)vehicle).
The Kaplan-Meier method was used to compare animal survival.

Assay [3] has as its system BT-474 human mammary tumor cells. Put plainly: Cell viability of BT-474 cells, MTT. It is filed as cell-based. The settings on record: for Mean LogIC50 (±SEM) / IC50: BT-474, MTT, 48 h; for Mean LogIC50 (±SEM): log of IC50 in μM; for IC50: Homo sapiens. As for the experimental part: The cell viability is measured by three different methods. For the first method, MTT labeling is performed at 48 hours. This test is based on the use of the tetrazolium salt MTT (3-(4,5-dimethylthiazol-2-yl)-2,5-diphenyltetrazolium bromide). Tetrazolium is reduced by mitochondrial succinate dehydrogenase in active live cells to formazan, a purple colored precipitate. The amount of precipitate formed is proportional to the amount of live cells but also to the metabolic activity of each cell. Thus, a simple determination of the optical density at 550 nm by spectroscopy makes it possible to determine the relative amount of live and metabolically active cells. After 48 hours, the medium is aspirated, and the cells are incubated with MTT (0.5 mg/ml in culture medium) for about 3 hours. The MTT solution is aspirated and the purple crystals are dissolved in dimethyl sulfoxide (DMSO). The OD (optical density) is measured at 550 nm. The percentage of viability is then determined in each well against the CTL and the IC50 (concentration at which 50% of cells remain alive) is determined for each molecule with the Prism software using a nonlinear regression curve (log(inhibitor) vs. Response).
as §1, §2

Setting [4] is: log of IC50 in μM, read-out: Mean LogIC50 (±SEM) (converted).

For `CC(C)CCC[C@@H](C)[C@H]1CC[C@H]2[C@@H]3C[C@@H](NCCc4c[nH]cn4)[C@@]4(O)C[C@@H](O)CC[C@]4(C)[C@H]3CC[C@]12C` [DX101, 5α-hydroxy-6β-[2-(1H-imidazol-4-yl)ethylamino]cholestan-3β-ol, reference compound], the IC50 in assay [1] (setting [4]) was 2.69 µM. The IC50 in assay [1] (read-out: IC50) was found to be 2.68 µM. Further, in assay [2], the “Mean LogIC50 (±SEM)” value is reported as 0.61 ± 0.20 and the IC50 is 4.03 µM. In addition, in the assay on 4T1 tumors, the median survival amounted to 9 days, the “survival after 15 days of treatment” value was 0% and the “Inhibition of tumor growth at 7 days” value was 48%. Also, in assay [3], the “Mean LogIC50 (±SEM)” value is listed as 0.88 ± 0.03 and the IC50 came out at 7.53 µM.

In the case of `CC(C)CCC[C@@H](C)[C@H]1CC[C@H]2[C@@H]3C[C@@H](NCCc4c[nH]cn4)[C@@]4(O)C[C@@H](F)CC[C@]4(C)[C@H]3CC[C@]12C` [DX111, 3β-fluoro-5α-hydroxy-6β-[2-(1H-imidazol-4-yl)ethylamino]cholestane], the IC50 in assay [1] (setting [4]) is 2.19 µM. For the same compound, in assay [1] (read-out: IC50), the IC50 is 2.18 µM. Also, in assay [2], the “Mean LogIC50 (±SEM)” value came out at 0.78 ± 0.15 and the IC50 turned out to be 5.96 µM. Further, in the assay with 4T1 tumors, the median survival turned out to be 10 days, the “survival after 15 days of treatment” value worked out at 25% and the “Inhibition of tumor growth at 7 days” value is 67%. In addition, in the assay on 4T1 tumors (p<0.01), the “effect on tumor growth reduction compared with DX101” value is “superior effect”. In assay [3], the “Mean LogIC50 (±SEM)” value is 0.95 ± 0.10 and the IC50 came out at 8.94 µM. Moreover, in assay [3] (BT-474, Tables 2a, 2b and 2c (MTT, LDH, Trypan Blue)), the “activity compared with DX101” value is reported as “similar”.
